# From publication PMC11428815, “Characterization of Novel SARM1 Inhibitors for the Treatment of Chemotherapy-Induced Peripheral Neuropathy” (Biomedicines, 2024)
# Tested on: T1, SARM1 TIR domain (DmrB–TIR)
# T1 construct: the SARM1 TIR domain was constructed into an Fkbp variant (DmrB); expressed in transfected cells; host or cells: 293T cells
# Assay: DmrB–TIR dimerization (AP20187)-induced cell death in 293T cells
# Type: cell-based
# Conditions: 24 h after AP20187 addition
# Excerpt: To verify the inhibitory mechanism of SARM1 owing to the TIR domain, the SARM1 TIR domain was constructed into an Fkbp variant (DmrB) at its N terminus, which undergoes homodimerization in the presence of AP20187 (a rapamycin analog) (Figure 2A).
# Figure 2 Design and characterization of the toxic effects of the SARM1 TIR domain in 293T cells using different compounds. (A) Scheme for TIR dimerization to verify the TIR domain using an Frb–Fkbp moiety fusion. (B) Compounds used and NR display prevention of DmrB–TIR-dependent death 24 h after AP20187 addition.
smiles,measurement,value
NC(=O)c1ccc[n+]([C@@H]2O[C@H](CO)[C@@H](O)[C@H]2O)c1 [NR],prevention of DmrB–TIR-dependent cell death (cell viability),cell death caused by TIR dimerization was alleviated
